A word on the IC50: it is the concentration needed to halve the response being measured.

Each structure is given as a SMILES string.

The values below come from patent US10953012B2, “Heterocyclic compounds for the inhibition of pask” (BioEnergenix LLC, priority 2011, dated 2021).

This experiment deals with PASK (Homo sapiens (Human), UniProt Q96RG2). As to the kind of experiment: PAS Kinase FRET Assay. It counts as biochemical. Conditions: TR-FRET assay; read-out: IC50 Kinase Domain. From the text: The aim of the FRET assay is to determine the inhibition potential of test compounds on targeted kinase. This assay platform provides a homogenous screening method for measuring kinase activity by quantitating the amount of phospho-substrate in solution following a kinase reaction.
Chain of PASK (Q96RG2 999-1251): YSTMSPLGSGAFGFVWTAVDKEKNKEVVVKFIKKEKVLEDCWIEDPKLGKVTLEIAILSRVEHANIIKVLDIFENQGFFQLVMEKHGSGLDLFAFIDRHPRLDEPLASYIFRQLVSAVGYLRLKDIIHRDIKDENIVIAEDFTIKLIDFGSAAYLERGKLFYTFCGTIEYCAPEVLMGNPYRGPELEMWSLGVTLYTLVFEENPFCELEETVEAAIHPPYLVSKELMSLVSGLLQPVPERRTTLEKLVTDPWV
In the presence of kinase and ATP, the Ulight-peptide is phosphorylated and captured by an anti-phospho-substrate antibody, which brings the Eu chelate donor and Ulight acceptor dyes into close proximity. Upon excitation at 340 nm, the Eu chelate transfers its energy to the Ulight dye, resulting in a fluorescent light emission at 665 nm
Titration of kinase at 1 mM ATP was achieved via the following protocol. After making serial three-fold dilutions of PASK (Invitrogen) in reaction buffer across the plate; 5 μl of kinase dilution and 5 μl substrate/ATP mix were added to the wells of the white Optiplate-384 (PerkinElmer). The contents of the plate were and incubated at RT for 1 h. The reaction was stopped by adding 5 μl of stop solution to each test well followed by mixing and incubation at RT for 10 minutes. 5 μl of detection mix (detection antibody diluted in detection buffer) was added; the contents of the plate were mixed and then incubated in the dark for 1 hour at RT. The signal was recorded at TR-FRET mode (665 nm/615 nm). The results were graphed to calculate the EC50.
Titration of ATP at the EC50 concentration of kinase to determine ATP Km, app. was performed using the following method. After making serial dilutions of ATP (Invitrogen), 5 μl of ATP dilution and 5 μl substrate/kinase mix were added to the wells of the white Optiplate-384 (PerkinElmer). The contents of the plate were and incubated at RT for 1 h. The reaction was stopped by adding 5 μl of stop solution to each test well followed by mixing and incubation at RT for 10 minutes. 5 μl of detection mix (detection antibody diluted in detection buffer) was added; the contents of the plate were mixed and then incubated in the dark for 1 hour at RT. The signal was recorded at TR-FRET mode (665 nm/615 nm). The results were graphed to calculate the EC50 as the ATP Km, app.
Compound screening was done via the following method. 10 mM stock solution of test compound in DMSO was prepared by dissolving test compound in DMSO at RT for 1 hour, and then sonicating at 100% output for 8 minutes. If compound is not soluble under this condition, it was diluted to 3 mM. Kinase reaction buffer was prepared containing 10 mM MgCl2, 50 mM HEPES, 1 mM EGTA, 0.01% TWEEN-20, 2 mM DTT. Serial dilutions of the test compounds were prepared at 4×final assay concentrations using Freedom EVO200® dispensing system as follows: 12×10^−5 M, 4×10^−5 M, 1.33×10^−5 M, 4.44×10^−6 M, 1.48×10^−6 M, 4.92×10^−7 M, 1.65×10^−7 M, […], 1.82×10^−8M, 6.09×10^−9, 2.03×10^−9 M. Test compounds (2.5 μl at 4× the final assay concentration) was added to wells using Freedom EVO200® dispensing system. As a positive control, 2.5 μl of positive compound was added to assay wells, and 2.5 μl of DMSO to assay wells as vehicle control. Kinase solution was prepared in reaction buffer at 2×final assay concentration. Kinase solution (5 μl) was added to each well of the assay plate. The substrate and ATP solution was prepared in kinase reaction buffer at 4×final assay concentration. The kinase reaction was started by adding 2.5 μl of substrate+ATP mix solution to each well of the assay plate. The plate is mixed on a plate shaker; then covered and allowed to react for 2 hours in the dark at 25° C. without shaking. The reaction was stopped by adding 5 μl of stop solution to each test well followed by mixing and incubation at RT for 10 minutes in the dark. 5 μl of detection mix (detection antibody diluted in detection buffer) was added; the contents of the plate were mixed and then incubated in the dark for 1 hour at RT. The signal was recorded at TR-FRET mode (665 nm/615 nm).
On the technique in general: TR-FRET usually uses a lanthanide donor and a delayed reading to cut background.
For `Cc1coc2ccc(-c3cc(=O)n4ncc(-c5ccccn5)c4[nH]3)cc12` [Example 167, 5-(3-Methylbenzofuran-5-yl)-3-(pyridin-2-yl)pyrazolo[1,5-a]pyrimidin-7(4H)-one], the half-maximal inhibitory concentration (IC50) was at most 10 µM.

On to `Cc1coc2ccc(-c3cc(=O)n4nc(O)c(-c5ccccn5)c4[nH]3)cc12` [Example 168, 2-Hydroxy-5-(3-methylbenzofuran-5-yl)-3-(pyridin-2-yl)pyrazolo[1,5-a]pyrimidin-7(4H)-one], for which the concentration for half-maximal inhibition (IC50) is at most 10 µM.

For the compound `Cc1cc2cc(-c3cc(=O)n4ncc(-c5ccccn5)c4[nH]3)ccc2o1` [Example 169, 5-(2-Methylbenzofuran-5-yl)-3-(pyridin-2-yl)pyrazolo[1,5-a]pyrimidin-7(4H)-one], the half-maximal inhibitory concentration (IC50) is at most 10 µM.

As to `Cc1cc2cc(-c3cc(=O)n4nc(N)c(-c5ccccn5)c4[nH]3)ccc2o1` [Example 170, 2-Amino-5-(2-methylbenzofuran-5-yl)-3-(pyridin-2-yl)pyrazolo[1,5-a]pyrimidin-7(4H)-one], the concentration for half-maximal inhibition (IC50) is at most 10 µM.

On to `Nc1nn2c(=O)cc(-c3ccc(C(F)(F)F)cc3)[nH]c2c1-c1ccccn1` [Example 172, 2-amino-3-(pyridin-2-yl)-5-(4-(trifluoromethyl)phenyl)pyrazolo[1,5-a]pyrimidin-7(411)-one], for which the IC50 is at most 10 µM.

With `O=c1cc(-c2ccc(C(F)(F)F)cc2)[nH]c2c(-c3ccccn3)cnn12` [Example 173, 3-(Pyridin-2-yl)-5-(4-(trifluoromethyl)phenyl)pyrazolo[1,5-a]pyrimidin-7(4H)-one], the half-maximal inhibitory concentration (IC50) was at most 10 µM.

Consider `Nc1nn2c(=O)cc(-c3cccc(F)c3)[nH]c2c1-c1ccccn1` [Example 174, 2-Amino-5-(3-fluorophenyl)-3-(pyridin-2-yl)pyrazolo[1,5-a]pyrimidin-7(4H)-one], for which the IC50 was at most 10 µM.

In the case of `O=c1cc(-c2cccc(F)c2)[nH]c2c(-c3ccccn3)cnn12` [Example 175, 5-(3-Fluorophenyl)-3-(pyridin-2-yl)pyrazolo[1,5-a]pyrimidin-7(4H)-one], the IC50 was at most 10 µM.

Regarding `Nc1nn2c(=O)cc(-c3ccc(F)cc3F)[nH]c2c1-c1ccccn1` [Example 176, 2-Amino-5-(2,4-difluorophenyl)-3-(pyridin-2-yl)pyrazolo[1,5-a]pyrimidin-7(4H)-one], the IC50 is at most 10 µM.

Turning to `O=c1cc(-c2ccc(F)cc2F)[nH]c2c(-c3ccccn3)cnn12` [Example 177, 5-(2,4-Difluorophenyl)-3-(pyridin-2-yl)pyrazolo[1,5-a]pyrimidin-7(4H)-one], the IC50 is at most 10 µM.

For the compound `CCCNC(=O)c1c(N)nn2c(=O)cc(-c3ccc4c(c3)OCO4)[nH]c12` [Example 178, 2-Amino-5-(benzo[d][1,3]dioxol-5-yl)-7-oxo-N-propyl-4,7-dihydropyrazolo[1,5-a]pyrimidine-3-carboxamide], the IC50 is at most 10 µM.

Take `CCC(=O)Nc1nn2c(=O)cc(-c3ccc4c(c3)OCO4)[nH]c2c1-c1ccccn1` [Example 180, N-(5-(Benzo[d][1,3]dioxol-5-yl)-7-oxo-3-(pyridin-2-yl)-4,7-dihydropyrazolo[1,5-a]pyrimidin-2-yl)propionamide]: the IC50 is at most 10 µM.

With `CC(C)C(=O)Nc1nn2c(=O)cc(-c3ccc4c(c3)OCO4)[nH]c2c1-c1ccccn1` [Example 181, N-(5-(Benzo[d][1,3]dioxol-5-yl)-7-oxo-3-(pyridin-2-yl)-4,7-dihydropyrazolo[1,5-a]pyrimidin-2-yl)isobutyramide], the half-maximal inhibitory concentration (IC50) was at most 10 µM.

On to `CC(=O)Nc1nn2c(=O)cc(-c3ccc4[nH]ncc4c3)[nH]c2c1-c1ccccn1` [Example 182, N-(5-(1H-Indazol-5-yl)-7-oxo-3-(pyridin-2-yl)-4,7-dihydropyrazolo[1,5-a]pyrimidin-2-yl)acetamide], for which the IC50 is at most 10 µM.

With `CCc1nn2c(=O)cc(-c3ccc4[nH]ncc4c3)[nH]c2c1-c1ccccn1` [Example 183, 2-Ethyl-5-(1H-indazol-5-yl)-3-(pyridin-2-yl)pyrazolo[1,5-a]pyrimidin-7(4H)-one], the IC50 was at most 10 µM.

In the case of `Cn1ncc2cc(-c3cc(=O)n4nc(N)c(-c5ccccn5)c4[nH]3)ccc21` [Example 184, 2-Amino-5-(1-methyl-1H-indazol-5-yl)-3-(pyridin-2-yl)pyrazolo[1,5-a]pyrimidin-7(4H)-one], the IC50 is at most 10 µM.

Take `Cc1nn2c(=O)cc(-c3ccc4[nH]nnc4c3)[nH]c2c1Cc1ccccc1` [Example 185, 5-(1H-Benzo[d][1,2,3]triazol-5-yl)-3-benzyl-2-methylpyrazolo[1,5-a]pyrimidin-7(4H)-one]: the IC50 was at most 10 µM.

For the compound `Cn1ncc2cc(-c3cc(=O)n4ncc(-c5ccccn5)c4[nH]3)ccc21` [Example 186, 5-(1-Methyl-1H-indazol-5-yl)-3-(pyridin-2-yl)pyrazolo[1,5-a]pyrimidin-7(4H)-one], the IC50 is at most 10 µM.

On to `O=c1cc(-c2ccc3[nH]ncc3c2)[nH]c2c(-c3ccccn3)c(O)nn12` [Example 187, 2-Hydroxy-5-(1H-indazol-5-yl)-3-(pyridin-2-yl)pyrazolo[1,5-a]pyrimidin-7(4H)-one], for which the concentration for half-maximal inhibition (IC50) is at most 10 µM.

In the case of `Cc1n[nH]c2ccc(-c3cc(=O)n4nc(N)c(-c5ccccn5)c4[nH]3)cc12` [Example 188, 2-Amino-5-(3-methyl-1H-indazol-5-yl)-3-(pyridin-2-yl)pyrazolo[1,5-a]pyrimidin-7(4H)-one], the IC50 is at most 10 µM.

`Cc1n[nH]c2ccc(-c3cc(=O)n4ncc(-c5ccccn5)c4[nH]3)cc12` [Example 189, 5-(3-Methyl-1H-indazol-5-yl)-3-(pyridin-2-yl)pyrazolo[1,5-a]pyrimidin-7(4H)-one]: the concentration for half-maximal inhibition (IC50) is at most 10 µM.

`CCc1nn2c(=O)cc(-c3ccc(Cl)cc3)[nH]c2c1-c1ccccn1` [Example 190, 5-(4-Chlorophenyl)-2-ethyl-3-(pyridin-2-yl)pyrazolo[1,5-a]pyrimidin-7(4H)-one]: the IC50 was at most 10 µM.

Regarding `O=c1cc(-c2ccc3[nH]nnc3c2)[nH]c2c(-c3ccccn3)cnn12` [Example 192, 5-(1H-Benzo[d][1,2,3]triazol-5-yl)-3-(pyridin-2-yl)pyrazolo[1,5-a]pyrimidin-7(4H)-one], the IC50 was at most 10 µM.

`Cn1nnc2cc(-c3cc(=O)n4nc(N)c(-c5ccccn5)c4[nH]3)ccc21` [Example 194, 2-Amino-5-(1-methyl-1H-benzo[d][1,2,3]triazol-5-yl)-3-(pyridin-2-yl)pyrazolo[1,5-a]pyrimidin-7(4H)-one]: the half-maximal inhibitory concentration (IC50) was at most 10 µM.

On to `Cn1nnc2cc(-c3cc(=O)n4ncc(-c5ccccn5)c4[nH]3)ccc21` [Example 195, 5-(1-Methyl-1H-benzo[d][1,2,3]triazol-5-yl)-3-(pyridin-2-yl)pyrazolo[1,5-a]pyrimidin-7(4H)-one], for which the concentration for half-maximal inhibition (IC50) was at most 10 µM.

Regarding `CCc1nn2c(=O)cc(-c3ccc4c(cnn4C)c3)[nH]c2c1-c1ccccn1` [Example 196, 2-Ethyl-5-(1-methyl-1H-indazol-5-yl)-3-(pyridin-2-yl)pyrazolo[1,5-a]pyrimidin-7(4H)-one], the IC50 is at most 10 µM.

With `Cc1nn2c(=O)cc(-c3ccc4[nH]nnc4c3)[nH]c2c1-c1ccccn1` [Example 200, 5-(1H-Benzo[d][1,2,3]triazol-5-yl)-2-methyl-3-(pyridin-2-yl)pyrazolo[1,5-a]pyrimidin-7(4H)-one], the half-maximal inhibitory concentration (IC50) is at most 10 µM.

On to `CC(=O)Nc1nn2c(=O)cc(-c3ccc4[nH]nnc4c3)[nH]c2c1-c1ccccn1` [Example 202, N-(5-(1H-Benzo[d][1,2,3]triazol-5-yl)-7-oxo-3-(pyridin-2-yl)-4,7-dihydropyrazolo[1,5-a]pyrimidin-2-yl)acetamide], for which the half-maximal inhibitory concentration (IC50) is at most 10 µM.
